From ChEMBL document CHEMBL1687786, “Diversity of staphylococcal cassette chromosome mec elements in predominant methicillin-resistant Staphylococcus aureus clones in a small geographic area” (2010)

Tests used:
Type in all cases: functional
Staphylococcus aureus [1] = assay: Antimicrobial activity against Staphylococcus aureus clone 2-2 harboring staphylococcal cassette chromosome mec element type 4 assessed as percent susceptible isolates by kirby-bauer method
Staphylococcus aureus [2] = assay: Antimicrobial activity against Staphylococcus aureus clone 2-2 harboring staphylococcal cassette chromosome mec element type 2 assessed as percent susceptible isolates by kirby-bauer method
Staphylococcus aureus [3] = assay: Antimicrobial activity against Staphylococcus aureus clone 1-1 harboring staphylococcal cassette chromosome mec element type 5 assessed as percent susceptible isolates by kirby-bauer method
Staphylococcus aureus [4] = assay: Antimicrobial activity against Staphylococcus aureus clone 1-1 harboring staphylococcal cassette chromosome mec element type U assessed as percent susceptible isolates by kirby-bauer method
Staphylococcus aureus [5] = assay: Antimicrobial activity against Staphylococcus aureus clone 1-1 harboring staphylococcal cassette chromosome mec element type 4 assessed as percent susceptible isolates by kirby-bauer method
Staphylococcus aureus [6] = assay: Antimicrobial activity against Staphylococcus aureus clone 2-2 harboring staphylococcal cassette chromosome mec element type 1 assessed as percent susceptible isolates by kirby-bauer method
Staphylococcus aureus [7] = assay: Antimicrobial activity against Staphylococcus aureus clone 2-2 harboring staphylococcal cassette chromosome mec element type 5 assessed as percent susceptible isolates by kirby-bauer method
Staphylococcus aureus [8] = assay: Antimicrobial activity against Staphylococcus aureus clone 2-2 harboring staphylococcal cassette chromosome mec element type U3 assessed as percent susceptible isolates by kirby-bauer method
Staphylococcus aureus [9] = assay: Antimicrobial activity against Staphylococcus aureus clone 2-2 harboring staphylococcal cassette chromosome mec element type U5 assessed as percent susceptible isolates by kirby-bauer method
Staphylococcus aureus [10] = assay: Antimicrobial activity against Staphylococcus aureus clone 3-3 harboring staphylococcal cassette chromosome mec element type 4 assessed as percent susceptible isolates by kirby-bauer method
Staphylococcus aureus [11] = assay: Antimicrobial activity against Staphylococcus aureus clone 3-3 harboring staphylococcal cassette chromosome mec element type 1 assessed as percent susceptible isolates by kirby-bauer method
Staphylococcus aureus [12] = assay: Antimicrobial activity against Staphylococcus aureus clone 3-3 harboring staphylococcal cassette chromosome mec element type 2 assessed as percent susceptible isolates by kirby-bauer method
Staphylococcus aureus [13] = assay: Antimicrobial activity against Staphylococcus aureus clone 3-3 harboring staphylococcal cassette chromosome mec element type 6 assessed as percent susceptible isolates by kirby-bauer method
Staphylococcus aureus [14] = assay: Antimicrobial activity against Staphylococcus aureus clone 3-3 harboring staphylococcal cassette chromosome mec element type U1 assessed as percent susceptible isolates by kirby-bauer method
Staphylococcus aureus [15] = assay: Antimicrobial activity against Staphylococcus aureus clone 3-3 harboring staphylococcal cassette chromosome mec element type U6 assessed as percent susceptible isolates by kirby-bauer method
Staphylococcus aureus [16] = assay: Antimicrobial activity against Staphylococcus aureus clone 4-4 harboring staphylococcal cassette chromosome mec element type 1 assessed as percent susceptible isolates by kirby-bauer method
Staphylococcus aureus [17] = assay: Antimicrobial activity against Staphylococcus aureus clone 4-4 harboring staphylococcal cassette chromosome mec element type 2 assessed as percent susceptible isolates by kirby-bauer method
Staphylococcus aureus [18] = assay: Antimicrobial activity against Staphylococcus aureus clone 4-4 harboring staphylococcal cassette chromosome mec element type 4 assessed as percent susceptible isolates by kirby-bauer method
Staphylococcus aureus [19] = assay: Antimicrobial activity against Staphylococcus aureus clone 4-4 harboring staphylococcal cassette chromosome mec element type 5 assessed as percent susceptible isolates by kirby-bauer method
Staphylococcus aureus [20] = assay: Antimicrobial activity against Staphylococcus aureus clone 4-4 harboring staphylococcal cassette chromosome mec element type U3 assessed as percent susceptible isolates by kirby-bauer method
Staphylococcus aureus [21] = assay: Antimicrobial activity against Staphylococcus aureus clone 2-2 harboring staphylococcal cassette chromosome mec element type 6 assessed as percent susceptible isolates by kirby-bauer method
Staphylococcus aureus [22] = assay: Antimicrobial activity against Staphylococcus aureus clone 3-3 harboring staphylococcal cassette chromosome mec element type U8 assessed as percent susceptible isolates by kirby-bauer method

CO/N=C(\C(=O)N[C@@H]1C(=O)N2C(C(=O)O)=C(CSc3nc(=O)c(O)nn3C)CS[C@H]12)c1csc(N)n1 [CEFTRIAXONE]
Activity (Staphylococcus aureus [1]): 0% | Activity (Staphylococcus aureus [2]): 0% | Activity (Staphylococcus aureus [3]): 0% | Activity (Staphylococcus aureus [4]): 0% | Activity (Staphylococcus aureus [5]): 2% | Activity (Staphylococcus aureus [6]): 11% | Activity (Staphylococcus aureus [7]): 11% | Activity (Staphylococcus aureus [8]): 0% | Activity (Staphylococcus aureus [9]): 0% | Activity (Staphylococcus aureus [10]): 0% | Activity (Staphylococcus aureus [11]): 0% | Activity (Staphylococcus aureus [12]): 0% | Activity (Staphylococcus aureus [13]): 0% | Activity (Staphylococcus aureus [14]): 0% | Activity (Staphylococcus aureus [15]): 0% | Activity (Staphylococcus aureus [16]): 0% | Activity (Staphylococcus aureus [17]): 0% | Activity (Staphylococcus aureus [18]): 0% | Activity (Staphylococcus aureus [19]): 0% | Activity (Staphylococcus aureus [20]): 0% | Activity (Staphylococcus aureus [21]): 0%

CCC[C@@H]1C[C@@H](C(=O)N[C@@H]([C@H]2O[C@H](SC)[C@H](O)[C@@H](O)[C@H]2O)[C@H](C)Cl)N(C)C1 [CLINDAMYCIN]
Activity (Staphylococcus aureus [1]): 56% | Activity (Staphylococcus aureus [2]): 38% | Activity (Staphylococcus aureus [3]): 100% | Activity (Staphylococcus aureus [4]): 100% | Activity (Staphylococcus aureus [5]): 98% | Activity (Staphylococcus aureus [6]): 89% | Activity (Staphylococcus aureus [7]): 89% | Activity (Staphylococcus aureus [8]): 100% | Activity (Staphylococcus aureus [9]): 100% | Activity (Staphylococcus aureus [10]): 79% | Activity (Staphylococcus aureus [11]): 0% | Activity (Staphylococcus aureus [13]): 100% | Activity (Staphylococcus aureus [14]): 100% | Activity (Staphylococcus aureus [15]): 50% | Activity (Staphylococcus aureus [22]): 95% | Activity (Staphylococcus aureus [16]): 1% | Activity (Staphylococcus aureus [17]): 0% | Activity (Staphylococcus aureus [19]): 100% | Activity (Staphylococcus aureus [20]): 100% | Activity (Staphylococcus aureus [21]): 100%

CC[C@H]1OC(=O)[C@H](C)[C@@H](O[C@H]2C[C@@](C)(OC)[C@@H](O)[C@H](C)O2)[C@H](C)[C@@H](O[C@@H]2O[C@H](C)C[C@H](N(C)C)[C@H]2O)[C@](C)(O)C[C@@H](C)C(=O)[C@H](C)[C@@H](O)[C@]1(C)O [ERYTHROMYCIN]
Activity (Staphylococcus aureus [1]): 39% | Activity (Staphylococcus aureus [2]): 1% | Activity (Staphylococcus aureus [3]): 100% | Activity (Staphylococcus aureus [4]): 100% | Activity (Staphylococcus aureus [5]): 98% | Activity (Staphylococcus aureus [6]): 67% | Activity (Staphylococcus aureus [7]): 89% | Activity (Staphylococcus aureus [8]): 100% | Activity (Staphylococcus aureus [9]): 0% | Activity (Staphylococcus aureus [11]): 0% | Activity (Staphylococcus aureus [13]): 100% | Activity (Staphylococcus aureus [14]): 100% | Activity (Staphylococcus aureus [15]): 50% | Activity (Staphylococcus aureus [22]): 98% | Activity (Staphylococcus aureus [16]): 1% | Activity (Staphylococcus aureus [17]): 0% | Activity (Staphylococcus aureus [19]): 100% | Activity (Staphylococcus aureus [20]): 0%

CC(=O)O[C@H]1C[C@@]2(C)[C@@H](C[C@@H](O)[C@H]3[C@@]4(C)CC[C@@H](O)[C@@H](C)[C@@H]4CC[C@@]32C)/C1=C(\CCC=C(C)C)C(=O)O [FUSIDIC ACID]
Activity (Staphylococcus aureus [1]): 100% | Activity (Staphylococcus aureus [2]): 98% | Activity (Staphylococcus aureus [3]): 100% | Activity (Staphylococcus aureus [4]): 0% | Activity (Staphylococcus aureus [5]): 83% | Activity (Staphylococcus aureus [6]): 0% | Activity (Staphylococcus aureus [7]): 100% | Activity (Staphylococcus aureus [8]): 100% | Activity (Staphylococcus aureus [9]): 100% | Activity (Staphylococcus aureus [10]): 96% | Activity (Staphylococcus aureus [11]): 0% | Activity (Staphylococcus aureus [13]): 0% | Activity (Staphylococcus aureus [15]): 50% | Activity (Staphylococcus aureus [22]): 100% | Activity (Staphylococcus aureus [16]): 99% | Activity (Staphylococcus aureus [17]): 100% | Activity (Staphylococcus aureus [18]): 100% | Activity (Staphylococcus aureus [19]): 50% | Activity (Staphylococcus aureus [20]): 100% | Activity (Staphylococcus aureus [21]): 100%

CO[C@H]1/C=C/O[C@@]2(C)Oc3c(C)c(O)c4c(O)c(c(/C=N/N5CCN(C)CC5)c(O)c4c3C2=O)NC(=O)/C(C)=C\C=C\[C@H](C)[C@H](O)[C@@H](C)[C@@H](O)[C@@H](C)[C@H](OC(C)=O)[C@@H]1C [RIFAMPIN]
Activity (Staphylococcus aureus [1]): 94% | Activity (Staphylococcus aureus [2]): 100% | Activity (Staphylococcus aureus [3]): 100% | Activity (Staphylococcus aureus [4]): 100% | Activity (Staphylococcus aureus [5]): 100% | Activity (Staphylococcus aureus [6]): 100% | Activity (Staphylococcus aureus [7]): 100% | Activity (Staphylococcus aureus [8]): 100% | Activity (Staphylococcus aureus [9]): 100% | Activity (Staphylococcus aureus [10]): 100% | Activity (Staphylococcus aureus [11]): 100% | Activity (Staphylococcus aureus [12]): 100% | Activity (Staphylococcus aureus [13]): 100% | Activity (Staphylococcus aureus [14]): 100% | Activity (Staphylococcus aureus [15]): 100% | Activity (Staphylococcus aureus [22]): 100% | Activity (Staphylococcus aureus [16]): 96% | Activity (Staphylococcus aureus [17]): 100% | Activity (Staphylococcus aureus [18]): 100% | Activity (Staphylococcus aureus [19]): 100% | Activity (Staphylococcus aureus [20]): 100% | Activity (Staphylococcus aureus [21]): 100%

GENTAMICIN
Activity (Staphylococcus aureus [1]): 94% | Activity (Staphylococcus aureus [2]): 100% | Activity (Staphylococcus aureus [3]): 100% | Activity (Staphylococcus aureus [4]): 100% | Activity (Staphylococcus aureus [5]): 98% | Activity (Staphylococcus aureus [6]): 100% | Activity (Staphylococcus aureus [7]): 0% | Activity (Staphylococcus aureus [8]): 100% | Activity (Staphylococcus aureus [9]): 100% | Activity (Staphylococcus aureus [10]): 100% | Activity (Staphylococcus aureus [11]): 97% | Activity (Staphylococcus aureus [12]): 100% | Activity (Staphylococcus aureus [13]): 100% | Activity (Staphylococcus aureus [14]): 100% | Activity (Staphylococcus aureus [15]): 100% | Activity (Staphylococcus aureus [22]): 100% | Activity (Staphylococcus aureus [16]): 95% | Activity (Staphylococcus aureus [17]): 3% | Activity (Staphylococcus aureus [18]): 100% | Activity (Staphylococcus aureus [19]): 100% | Activity (Staphylococcus aureus [20]): 100% | Activity (Staphylococcus aureus [21]): 100%
